Results reported in US20260060250A1, “HERBICIDAL PYRIDONE DERIVATIVES” (SYNGENTA CROP PROTECTION AG, priority 2022, published 2026).

Experiments:
Assay type in all cases: in vivo
Details in all cases: lower rate of 250 g per hectare, evaluated after 13 days
[1] = tested on: Amaranthus palmeri (AMAPA); experiment: Pre-emergence Test (Table B1)
Setaria faberi (SETFA) [2] = experiment: Pre-emergence Test (Table B1); parameters: key: 5=81-100%; 4=61-80%; 3=41-60%; 2=21-40%; 1=0-20%; 0=inactive
[3] = tested on: Echinochloa crus-galli (ECHCG); experiment: Pre-emergence Test (Table B1); parameters: key: 5=81-100%; 4=61-80%; 3=41-60%; 2=21-40%; 1=0-20%; 0=inactive
[4] = tested on: Amaranthus retroflexus (AMARE); experiment: Pre-emergence Test (Table B1)
Zea mays (ZEAMX) [5] = experiment: Pre-emergence Test (Table B1); parameters: key: 5=81-100%; 4=61-80%; 3=41-60%; 2=21-40%; 1=0-20%; 0=inactive
[6] = tested on: Ipomoea hederacea (IPOHE); experiment: Pre-emergence Test (Table B1)
[7] = tested on: Amaranthus palmeri (AMAPA); experiment: Post-emergence Test (Table B2)
Outline: (§1)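 Seeds were sown in standard soil in pots, kept in a glasshouse (24 °C/16 °C day/night, 14 h light, 65% humidity), and sprayed with compound in acetone/water (50:50) with 0.5% Tween 20, at 1000 g/ha unless otherwise stated. Percentage plant damage was scored after 13 days.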

[8] = tested on: Amaranthus retroflexus (AMARE); experiment: Post-emergence Test (Table B2)
Outline: as §1

Setaria faberi (SETFA) [9] = experiment: Post-emergence Test (Table B2)
Outline: as §1

[10] = tested on: Echinochloa crus-galli (ECHCG); experiment: Post-emergence Test (Table B2)
Outline: as §1

[11] = tested on: Ipomoea hederacea (IPOHE); experiment: Post-emergence Test (Table B2)
Outline: as §1

Zea mays (ZEAMX) [12] = experiment: Post-emergence Test (Table B2)
Outline: as §1

Structure (SMILES)	percentage damage caused to the plant, AMAPA [1]	percentage damage caused to the plant, SETFA (Setaria faberi (SETFA) [2])	percentage damage caused to the plant, ECHCG [3]	percentage damage caused to the plant, AMARE [4]	percentage damage caused to the plant, ZEAMX (Zea mays (ZEAMX) [5])	percentage damage caused to the plant, IPOHE [6]	percentage damage caused to the plant, AMAPA [7]	percentage damage caused to the plant, AMARE [8]	percentage damage caused to the plant, SETFA (Setaria faberi (SETFA) [9])	percentage damage caused to the plant, ECHCG [10]	percentage damage caused to the plant, IPOHE [11]	percentage damage caused to the plant, ZEAMX (Zea mays (ZEAMX) [12])
CCn1c(C)c(-c2cc(C(=O)OC(C)C#N)c(Cl)cc2F)c(=O)c(C(=O)O)c1-c1ccc(Cl)c(Cl)c1 (stereo not drawn) [Compound 44, 5-[4-chloro-5-(1-cyanoethoxycarbonyl)-2-fluoro-phenyl]-2-(3,4-dichlorophenyl)-1-ethyl-6-methyl-4-oxo-pyridine-3-carboxylic acid]	5 (5=81-100%)	0	0	5 (5=81-100%)	0	2 (2=21-40%)	5 (5=81-100%)	5 (5=81-100%)	3 (3=41-60%)	3 (3=41-60%)	4 (4=61-80%)	2 (2=21-40%)
CCn1c(C)c(-c2cc(C(=O)OC3CC3)c(Cl)cc2F)c(=O)c(C(=O)O)c1-c1ccc(C#N)c(Cl)c1 [Compound 46, 2-(3-chloro-4-cyano-phenyl)-5-[4-chloro-5-(cyclopropoxycarbonyl)-2-fluoro-phenyl]-1-ethyl-6-methyl-4-oxo-pyridine-3-carboxylic acid]	5 (5=81-100%)	1 (1=0-20%)	0	5 (5=81-100%)	0	2 (2=21-40%)	5 (5=81-100%)	5 (5=81-100%)	5 (5=81-100%)	5 (5=81-100%)	4 (4=61-80%)	5 (5=81-100%)
